Results: patent publication US6642226B2, “Substituted phenyl-piperidine methanone compounds” (Hoffman-La Roche Inc., priority 2001, dated 2003)

Molecular target: T1, human NK1 receptor (Homo sapiens, UniProt P25103)
T1 construct: expressed in transfected cells; host or cells: CHO cells, Semliki virus expression system; membrane suspension
Experiment: NK1 receptor binding, [3H]substance P displacement
Details: for Ki: human NK1 receptors in CHO cells, [3H]substance P 0.6 nM, read-out: pKi (affinity to the NK-1 receptor) (converted); for relative activity of enantiomer in the test for NK-1 binding: enantiomer fraction from Chiralpak AD separation of the racemate
Protocol: The affinity of test compounds for the NK1 receptor was evaluated at human NK1 receptors in CHO cells infected with the human NK1 receptor (using the Semliki virus expression system) and radiolabelled with [^3H]substance P (final concentration 0.6 nM). Binding assays were performed in HEPES buffer (50 mM, pH 7.4) containing BSA (0.04%) leupeptin (8 μg/ml), MnCl2 (3 mM) and phosphoramidon (2 μM). Binding assays consisted of 250 μl of membrane suspension (1.25×10^5 cells/assay tube), […] of buffer of displacing agent and 125 μl of [^3H]substance P. Displacement curves were determined with at least seven concentrations of the compound. The assay tubes were incubated for 60 min at room temperature after which time the tube contents were rapidly filtered under vacuum through GF/C filters presoaked for 60 min with PEI (0.3%) with 2×2 ml washes of HEPES buffer (50 mM, pH 7.4). The radioactivity retained on the filters was measured by scintillation counting. All assays were performed in triplicate in at least 2 separate experiments.

T1 sequence (P25103 whole entry): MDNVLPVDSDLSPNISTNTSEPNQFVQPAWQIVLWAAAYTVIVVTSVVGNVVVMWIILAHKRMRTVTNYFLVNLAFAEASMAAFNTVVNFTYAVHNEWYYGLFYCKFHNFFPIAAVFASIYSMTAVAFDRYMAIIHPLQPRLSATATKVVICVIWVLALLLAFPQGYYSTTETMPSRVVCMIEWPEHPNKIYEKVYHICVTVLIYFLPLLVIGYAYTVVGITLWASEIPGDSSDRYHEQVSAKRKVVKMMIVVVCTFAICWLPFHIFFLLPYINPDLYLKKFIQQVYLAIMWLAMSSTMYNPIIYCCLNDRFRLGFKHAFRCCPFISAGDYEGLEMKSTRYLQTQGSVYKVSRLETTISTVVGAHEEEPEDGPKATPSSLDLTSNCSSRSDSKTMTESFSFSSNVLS

Ki | relative activity of enantiomer in the test for NK-1 binding | Structure (SMILES)
2.34 nM |  | Cc1ccc(C2CN(C(=O)c3cc(C(F)(F)F)cc(C(F)(F)F)c3)CCC2N2CCN(C(=O)N3CCOCC3)CC2)cc1 (single isomer, unassigned; (-)) [Example 104, (−)-(3,5-Bis-trifluoromethyl-phenyl)-{4-[4-(morpholine-4-carbonyl)-piperazin-1-yl]-3-p-tolyl-piperidin-1-yl}-methanone]
0.912 nM |  | O=C(c1cc(C(F)(F)F)cc(C(F)(F)F)c1)N1CCC(N2CCN(CCO)CC2)C(c2ccccc2)C1 (single isomer, unassigned; (-)) [Example 115, (−)-(3,5-Bis-trifluoromethyl-phenyl)-{4-[4-(2-hydroxy-ethyl)-piperazin-1-yl]-3-phenyl-piperidin-1-yl}-methanone]
3.16 nM |  | O=C(c1cc(C(F)(F)F)cc(C(F)(F)F)c1)N1CC[C@H](N2CCN(C(=O)C(F)(F)F)CC2)[C@H](c2ccc(Cl)cc2)C1 (racemic) [Example 106, Rac-cis-1-{4-[1-(3,5-Bis-trifluoromethyl-benzoyl)-3-(4-chloro-phenyl)-piperidin-4-yl]-piperazin-1-yl}-2,2,2-trifluoro-ethanone]
3.16 nM | more active enantiomer | O=C(c1cc(C(F)(F)F)cc(C(F)(F)F)c1)N1CC[C@@H](N2CCCC2)[C@@H](c2ccc(Cl)cc2)C1 (single isomer, unassigned) [Example 80, (−)-(3,5-Bis-trifluoromethyl-phenyl)-[3-(4-chloro-phenyl)-4-pyrrolidin-1-yl-piperidin-1-yl]-methanone]
1.29 nM | more active enantiomer | O=C(c1cc(C(F)(F)F)cc(C(F)(F)F)c1)N1CC[C@@H](N2CCN(C(=O)C(F)(F)F)CC2)[C@@H](c2ccc(Cl)cc2)C1 (single isomer, unassigned) [Example 108, (−)-1-{4-[1-(3,5-Bis-trifluoromethyl-benzoyl)-3-(4-chloro-phenyl)-piperidin-4-yl]-piperazin-1-yl}-2,2,2-trifluoro-ethanone]
 | more active enantiomer | O=C(c1cc(C(F)(F)F)cc(C(F)(F)F)c1)N1CCC(N2CCN(C(=O)C3CC3)CC2)C(c2ccc(F)cc2)C1 (single isomer, unassigned; (+)) [Example 85, (+)-(3,5-Bis-trifluoromethyl-phenyl)-[4-(4-cyclopropanecarbonyl-piperazin-1-yl)-3-(4-fluoro-phenyl)-piperidin-1-yl]-methanone]
0.457 nM |  | Cc1ccc(C2CN(C(=O)c3cc(C(F)(F)F)cc(C(F)(F)F)c3)CCC2N2CCN(C)CC2)cc1 (single isomer, unassigned; (-)) [Example 111, (−)-(3,5-Bis-trifluoromethyl-phenyl)-[4-(4-methyl-piperazin-1-yl)-3-p-tolyl-piperidin-1-yl]-methanone]
2.09 nM |  | O=C(c1cc(C(F)(F)F)cc(C(F)(F)F)c1)N1CC[C@H](N2CCNCC2)[C@H](c2ccc(F)cc2)C1 (racemic) [Example 82, Rac-cis-(3,5-Bis-trifluoromethyl-phenyl)-[3-(4-fluoro-phenyl)-4-piperazin-1-yl-piperidin-1-yl]-methanone]
2.57 nM | more active enantiomer | O=C(c1cc(C(F)(F)F)cc(C(F)(F)F)c1)N1CC[C@@H](N2CCOCC2)[C@@H](c2ccc(Cl)cc2)C1 (single isomer, unassigned) [Example 70, (−)-(3,5-Bis-trifluoromethyl-phenyl)-[3-(4-chloro-phenyl)-4-morpholin-4-yl-piperidin-1-yl]-methanone]
1.41 nM | more active enantiomer | O=C(c1cc(C(F)(F)F)cc(C(F)(F)F)c1)N1CC[C@@H](N2CCN(C(=O)C3CC3)CC2)[C@@H](c2ccccc2)C1 (single isomer, unassigned) [Example 65, (+)-(3,5-Bis-trifluoromethyl-phenyl)-[4-(4-cyclopropanecarbonyl-piperazin-1-yl)-3-phenyl-piperidin-1-yl]-methanone]
1.62 nM |  | O=C(c1cc(C(F)(F)F)cc(C(F)(F)F)c1)N1CCC(N2CCC(N3CCOCC3)CC2)C(c2ccc(Cl)cc2)C1 (racemic) [Example 109, Rac-cis-(3,5-Bis-trifluoromethyl-phenyl)-[3′-(4-chloro-phenyl)-4-morpholin-4-yl-[1,4′]bipiperidinyl-1′-yl]-methanone]
2.45 nM | more active enantiomer | CN1CCN([C@@H]2CCN(C(=O)c3cc(C(F)(F)F)cc(C(F)(F)F)c3)C[C@@H]2c2ccc(F)cc2)CC1 (single isomer, unassigned) [Example 90, (−)-(3,5-Bis-trifluoromethyl-phenyl)-[3-(4-fluoro-phenyl)-4-(4-methyl-piperazin-1-yl)-piperidin-1-yl]-methanone]
 | more active enantiomer | CC(C)(C)OC(=O)N1CCN(C2CCN(C(=O)c3cc(C(F)(F)F)cc(C(F)(F)F)c3)CC2c2ccccc2)CC1 (single isomer, unassigned; (-)) [Example 101, (−)-4-[1-(3,5-Bis-trifluoromethyl-benzoyl)-3-phenyl-piperidin-4-yl]-piperazine-1-carboxylic Acid Tert-Butyl Ester]
2.04 nM |  | O=C(Cc1ccccc1)NC1CCCN(C2CCN(C(=O)c3cc(C(F)(F)F)cc(C(F)(F)F)c3)CC2c2ccc(F)cc2)C1 (mixture of isomers) [Example 79, (3RS,3′RS,4SR)- and (3RS,3′SR,4SR)-N-[1′-(3,5-Bis-trifluoromethyl-benzoyl)-3′-(4-fluoro-phenyl)-[1,4′]bipiperidinyl-3-yl]-2-phenyl-acetamide]
1 nM |  | O=C(c1cc(C(F)(F)F)cc(C(F)(F)F)c1)N1CC[C@@H](N2CCN(C3CC3)CC2)[C@@H](c2ccccc2)C1 (single isomer, unassigned) [Example 119, (−)-(3,5-Bis-trifluoromethyl-phenyl)-[4-(4-cyclopropyl-piperazin-1-yl)-3-phenyl-piperidin-1-yl]-methanone]
1.05 nM |  | Cc1ccc(C2CN(C(=O)c3cc(C(F)(F)F)cc(C(F)(F)F)c3)CCC2N2CCN(C3CC3)CC2)cc1 (single isomer, unassigned; (-)) [Example 110, (−)-(3,5-Bis-trifluoromethyl-phenyl)-[4-(4-cyclopropyl-piperazin-1-yl)-3-p-tolyl-piperidin-1-yl]-methanone]
0.794 nM |  | O=C(c1cc(C(F)(F)F)cc(C(F)(F)F)c1)N1CCC(N2CCC(NC3CC3)CC2)C(c2ccc(Cl)cc2)C1 (racemic) [Example 112, Rac-cis-(3,5-Bis-trifluoromethyl-phenyl)-[3′-(4-chloro-phenyl)-4-cydopropylamino-[1,4′]bipiperidinyl-1′-yl]-methanone]
 | more active enantiomer | CN1CCN(C2CCN(C(=O)c3cc(Cl)cc(Cl)c3)CC2c2ccccc2)CC1 (single isomer, unassigned; (+)) [Example 127, (+)-(3,5-Dichloro-phenyl)-[4-(4-methyl-piperazin-1-yl)-3-phenyl-piperidin-1-yl]-methanone]
0.631 nM |  | CN(C)C1CCN(C2CCN(C(=O)c3cc(C(F)(F)F)cc(C(F)(F)F)c3)CC2c2ccc(Cl)cc2)CC1 (racemic) [Example 107, Rac-cis-(3,5-bis-trifluoromethyl-phenyl)-[3′-(4-chloro-phenyl)-4-dimethylamino-[1,4′]bipiperidinyl-1′-yl]-methanone]
